# Literature values in patent US20190015446A1, “MEDICINAL COMPOSITION FOR IMPROVING PROGNOSIS AFTER RESTART OF PATIENT'S OWN HEARTBEAT” (KEIO UNIVERSITY, priority 2015, published 2019).
# Assays:
# healthy persons = settings: hydrogen gas 49%
# [1] = system: rats after cardiopulmonary arrest resuscitation; settings: inhalation from before to immediately after return of spontaneous circulation
smiles,measurement,setting,value
[HH] [hydrogen gas],Adverse reaction on inhalation,healthy persons,no adverse reaction
same,Brain and heart functions and vital prognosis after cardiopulmonary arrest resuscitation,[1],can improve brain and heart functions and vital prognosis
